Measurements as given in ChEMBL document CHEMBL5226287, “Small organic molecules targeting the energy metabolism of Mycobacterium tuberculosis” (Eur J Med Chem, 2021).
Values after ≈ are worked out from the molar mass of the structure shown. Starred links: 1 amine or outer side, 2 acyl side, 3 side chain; linkers in the order of their positions; H or OH if unused. Non-standard residues stand in square brackets, D forms with d. Residues, ends and D or L forms follow the SMILES beside them. ξ: configuration not given here. *: point of attachment. X1 = CCC(=O)C[C@@H](O)C[C@@H](C)C[C@H](N[*:1])C(=O)[*:2]; Alaψ(CH2NMeCH2CH2OH) = C[C@@H](CN(C)CCO)N*; Decanoyl(2R-Me) = CCCCCCCC[C@@H](C)C(=O)*; Ile(3ξ) = CCC(C)[C@H](N)C(=O)O; ξβ3hP = O=C(O)CC1CCCN1; Aib = CC(C)(N)C(=O)O

How the values were obtained:
Assay type in all cases: functional
[1] = system: Mycobacterium tuberculosis; assay: Antimycobacterial activity against Mycobacterium tuberculosis QcrBT mutant assessed as reduction in bacterial growth
[2] = system: Mycobacterium tuberculosis; assay: Antibacterial activity against Mycobacterium tuberculosis H37Rv resistant isoniazid by CLSI broth microdilution method; conditions: route inh
[3] = system: Mycobacterium tuberculosis; assay: Antibacterial activity against Mycobacterium tuberculosis H37Rv resistant rifampicin by CLSI broth microdilution method
[4] = system: Mycobacterium tuberculosis; assay: Antibacterial activity against isoniazid-resistant Mycobacterium tuberculosis H37Rv assessed as bacterial growth inhibition by microdilution method
[5] = system: Mycobacterium tuberculosis; assay: Antibacterial activity against rifampicin-resistant Mycobacterium tuberculosis H37Rv assessed as bacterial growth inhibition by microdilution method
[6] = system: Mycobacterium tuberculosis; assay: Antibacterial activity against drug resistant Mycobacterium tuberculosis H37Rv in the presence of ATP synthase
[7] = system: Mycobacterium tuberculosis; assay: Antibacterial activity against Mycobacterium tuberculosis H37Rv overexpressed in ATP synthase

Structure (SMILES): Cc1ccn2c(C(=O)NCc3ccccc3)c(C)nc2c1
- MIC90 [1]: 6.5 µM (≈ 1.82 µg/mL)

Structure (SMILES): CCCc1cc(OCC(=O)Nc2ccccc2OC)c2cc(OC)ccc2n1
- MIC [2]: 0.01 µg/mL (≈ 0.0263 µM)
- MIC [3]: 0.01 µg/mL (≈ 0.0263 µM)

Structure (SMILES): Cc1cn2c(C(=O)NCc3ccc(C(F)(F)F)cc3)c(C)nc2s1
- MIC [4]: < 0.04 µM
- MIC [5]: < 0.04 µM

Structure (SMILES): CN(C)Cc1ccc(-c2cc3cc(Br)ccc3nc2OCc2ccncc2)cc1
- MIC [6]: 0.48 µg/mL

Structure (SMILES): Cc1cn2c(C(=O)NCc3ccc(N4CCN(c5ccc(C(F)(F)F)cn5)CC4)c(F)c3)c(C)nc2s1
- MIC [4]: < 0.506 µM
- MIC [5]: < 0.201 µM

Structure (SMILES): CN(C)CCN1CCN(c2ccc(-c3cc4cc(Br)ccc4nc3OCc3ccc4ccccc4c3)cc2)CC1
- MIC [6]: 0.94 µg/mL

Structure (SMILES): Cc1ccn2c(C(=O)NCc3cccc(OC(C)C)c3)c(C)nc2c1
- MIC90 [1]: >20 µM

Structure (SMILES): CCCCCCCC[C@@H](C)C(=O)N1CCCC1CC(=O)N[C@@H](C[C@H](C)C[C@H](O)CC(=O)CC)C(=O)NC(C)(C)C(=O)NC(C)(C)C(=O)N[C@H](C(=O)N[C@H](C(=O)NC(C)(C)C(=O)NC(C)(C)C(=O)N[C@@H](C)CN(C)CCO)C(C)C)C(C)CC (stereo partly drawn) ({Decanoyl(2R-Me)}-[ξβ3hP][X1][Aib][Aib][Ile(3ξ)]V[Aib][Aib]-{Alaψ(CH2NMeCH2CH2OH)})
- MIC [7]: 0.12 µg/mL (≈ 0.102 µM)
